Source: US8759342B2, “Benzo[1,4]oxazin-3-one, benzo[1,4]thiazin-3-one and quinolin-2-one urotensin II receptor antagonists” (Janssen Pharmaceutica NV, priority 2006, dated 2014)
pIC50: −log10 of the molar value.

Biological target: T1, rat GPR14 (U-II receptor) (Rattus norvegicus, UniProt P49684)
T1 construct: expressed in transfected cells
T1 sequence (P49684 1-386): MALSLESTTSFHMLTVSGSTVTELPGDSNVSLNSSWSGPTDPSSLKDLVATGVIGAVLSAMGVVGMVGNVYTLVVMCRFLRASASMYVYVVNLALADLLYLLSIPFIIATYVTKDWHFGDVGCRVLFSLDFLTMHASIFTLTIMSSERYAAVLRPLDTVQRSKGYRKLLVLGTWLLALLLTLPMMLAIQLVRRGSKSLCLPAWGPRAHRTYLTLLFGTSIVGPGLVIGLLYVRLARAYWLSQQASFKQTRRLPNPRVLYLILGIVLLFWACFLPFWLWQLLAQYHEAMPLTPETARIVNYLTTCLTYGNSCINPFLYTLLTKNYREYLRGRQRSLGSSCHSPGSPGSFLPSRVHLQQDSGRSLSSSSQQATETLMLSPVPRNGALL
Experiment: Calcium flux assay (FLIPR)
Type: cell-based
Settings: Inhibition of acetyl-cyclic[Cys-Phe-Trp-Lys-(2-Nal)-Cys]-NH2 (1 nM) induced Ca2+ mobilization (FLIPR) in CHO cells transfected with rat UII receptor; 5 min incubation
Text: To derive these cells, the complete coding sequence of rat […] was amplified by nested PCR from rat heart marathon-Ready cDNA. […] The PCR products were cloned into pcDNA3 (Invitrogen) digested with EcoR I and Xba I. Clones containing rat U-II receptor were verified by complete sequencing of the U-II receptor insert to ensure a lack of PCR-introduced errors. The constructed vector was transfected into CHO cells by using lipofectamine (GIBCO BRL). CHO cells with high expression of rat U-II receptor were selected and established as stable cell lines by using G418. CHO cells were seeded at 25,000 cells per well into 96-well, black-wall, clear-bottom microtiter plates 24 hrs before assay. Cells in culture media (DMEM/F12 containing 15 mM HEPES, L-glutamine, pyridoxine hydrochloride; 10% fetal bovine serum; 1 mg/mL G418 sulfate; antibiotic-antimycotic; pH 7.4) were loaded with proprietary dye, from the FLIPR Calcium Assay Kit (Molecular Devices), prepared in assay buffer (Hanks Balanced Salts Solution, 20 mM HEPES, 0.1% BSA, 2.5 mM probenecid, pH 7.4), and incubated for 1 hr at 37° C. Calcium mobilization determinations were performed at room temperature (23° C.).

## O=C(NCCc1ccc(C(F)(F)F)cc1)c1ccccc1C1CCN(CCN2C(=O)COc3ccccc32)CC1 [Cpd 40, 2-{1-[2-(3-oxo-2,3-dihydro-benzo[1,4]oxazin-4-yl)-ethyl]-piperidin-4-yl}-N-[2-(4-trifluoromethyl-phenyl)-ethyl]-benzamide]
  pIC50: 5.40

## O=C(NCc1ccccn1)c1ccccc1C1CCN(CCN2C(=O)COc3ccccc32)CC1 [Cpd 41, 2-{1-[2-(3-oxo-2,3-dihydro-benzo[1,4]oxazin-4-yl)-ethyl]-piperidin-4-yl}-N-pyridin-2-ylmethyl-benzamide]
  pIC50: 4.68

## O=C(NCCc1ccccn1)c1ccccc1C1CCN(CCN2C(=O)COc3ccccc32)CC1 [Cpd 42, 2-{1-[2-(3-oxo-2,3-dihydro-benzo[1,4]oxazin-4-yl)-ethyl]-piperidin-4-yl}-N-(2-pyridin-2-yl-ethyl)-benzamide]
  pIC50: 4.70

## O=C(NCc1cccnc1)c1ccccc1C1CCN(CCN2C(=O)COc3ccccc32)CC1 [Cpd 43, 2-{1-[2-(3-oxo-2,3-dihydro-benzo[1,4]oxazin-4-yl)-ethyl]-piperidin-4-yl}-N-pyridin-3-ylmethyl-benzamide]
  pIC50: 4.74

## O=C(NCc1ccncc1)c1ccccc1C1CCN(CCN2C(=O)COc3ccccc32)CC1 [Cpd 44, 2-{1-[2-(3-oxo-2,3-dihydro-benzo[1,4]oxazin-4-yl)-ethyl]-piperidin-4-yl}-N-pyridin-4-ylmethyl-benzamide]
  pIC50: 4.68

## O=C(NCCc1ccncc1)c1ccccc1C1CCN(CCN2C(=O)COc3ccccc32)CC1 [Cpd 45, 2-{1-[2-(3-oxo-2,3-dihydro-benzo[1,4]oxazin-4-yl)-ethyl]-piperidin-4-yl}-N-(2-pyridin-4-yl-ethyl)-benzamide]
  pIC50: 4.80

## O=C(NCc1cccs1)c1ccccc1C1CCN(CCN2C(=O)COc3ccccc32)CC1 [Cpd 46, 2-{1-[2-(3-oxo-2,3-dihydro-benzo[1,4]oxazin-4-yl)-ethyl]-piperidin-4-yl}-N-thiophen-2-ylmethyl-benzamide]
  pIC50: 5.22

## O=C(NCCc1cccs1)c1ccccc1C1CCN(CCN2C(=O)COc3ccccc32)CC1 [Cpd 47, 2-{1-[2-(3-oxo-2,3-dihydro-benzo[1,4]oxazin-4-yl)-ethyl]-piperidin-4-yl}-N-(2-thiophen-2-yl-ethyl)-benzamide]
  pIC50: 5.15

## O=C(NCCCn1ccnc1)c1ccccc1C1CCN(CCN2C(=O)COc3ccccc32)CC1 [Cpd 48, N-(3-imidazol-1-yl-propyl)-2-{1-[2-(3-oxo-2,3-dihydro-benzo[1,4]oxazin-4-yl)-ethyl]-piperidin-4-yl}-benzamide]
  pIC50: 4.37

## CC(=O)NCCNC(=O)c1ccccc1C1CCN(CCN2C(=O)COc3ccccc32)CC1 [Cpd 49, N-(2-acetylamino-ethyl)-2-{1-[2-(3-oxo-2,3-dihydro-benzo[1,4]oxazin-4-yl)-ethyl]-piperidin-4-yl}-benzamide]
  pIC50: 4.42

## O=C(NCCCN1CCCC1=O)c1ccccc1C1CCN(CCN2C(=O)COc3ccccc32)CC1 [Cpd 51, 2-{1-[2-(3-oxo-2,3-dihydro-benzo[1,4]oxazin-4-yl)-ethyl]-piperidin-4-yl}-N-[3-(2-oxo-pyrrolidin-1-yl)-propyl]-benzamide]
  pIC50: 4.66

## O=C(NCCN1CCCCC1)c1ccccc1C1CCN(CCN2C(=O)COc3ccccc32)CC1 [Cpd 52, 2-{1-[2-(3-oxo-2,3-dihydro-benzo[1,4]oxazin-4-yl)-ethyl]-piperidin-4-yl}-N-(2-piperidin-1-yl-ethyl)-benzamide]
  pIC50: 4.80

## O=C(c1ccccc1C1CCN(CCN2C(=O)COc3ccccc32)CC1)N1CCc2ccccc2C1 [Cpd 53, 4-(2-{4-[2-(3,4-dihydro-1H-isoquinoline-2-carbonyl)-phenyl]-piperidin-1-yl}-ethyl)-4H-benzo[1,4]oxazin-3-one]
  pIC50: 4.74

## O=C(NCCNC(=O)c1ccccc1C1CCN(CCN2C(=O)COc3ccccc32)CC1)Nc1ccc2ccccc2c1 [Cpd 54, N-[2-(3-naphthalen-2-yl-ureido)-ethyl]-2-{1-[2-(3-oxo-2,3-dihydro-benzo[1,4]oxazin-4-yl)-ethyl]-piperidin-4-yl}-benzamide]
  pIC50: 5.15

## COC(=O)c1cc(Cl)ccc1C1CCN(CCN2C(=O)COc3ccccc32)CC1 [Cpd 56, 5-chloro-2-{1-[2-(3-oxo-2,3-dihydro-benzo[1,4]oxazin-4-yl)-ethyl]-piperidin-4-yl}-benzoic acid methyl ester]
  pIC50: 5.10

## CN(C)C(=O)c1cc(Cl)ccc1C1CCN(CCN2C(=O)COc3ccccc32)CC1 [Cpd 59, 5-chloro-N,N-dimethyl-2-{1-[2-(3-oxo-2,3-dihydro-benzo[1,4]oxazin-4-yl)-ethyl]-piperidin-4-yl}-benzamide]
  pIC50: 5.00

## O=C(NCCc1c[nH]c2ccccc12)c1cc(Cl)ccc1C1CCN(CCN2C(=O)COc3ccccc32)CC1 [Cpd 62, 5-chloro-N-[2-(1H-indol-3-yl)-ethyl]-2-{1-[2-(3-oxo-2,3-dihydro-benzo[1,4]oxazin-4-yl)-ethyl]-piperidin-4-yl}-benzamide]
  pIC50: 6.05

## O=C(NCC1CCN(C(=O)c2ccccc2)CC1)c1cc(Cl)ccc1C1CCN(CCN2C(=O)COc3ccccc32)CC1 [Cpd 64, N-(1-benzoyl-piperidin-4-ylmethyl)-5-chloro-2-{1-[2-(3-oxo-2,3-dihydro-benzo[1,4]oxazin-4-yl)-ethyl]-piperidin-4-yl}-benzamide]
  pIC50: 6.28

## O=C(NCCN1CCCCC1)c1cc(Cl)ccc1C1CCN(CCN2C(=O)COc3ccccc32)CC1 [Cpd 71, 5-chloro-2-{1-[2-(3-oxo-2,3-dihydro-benzo[1,4]oxazin-4-yl)-ethyl]-piperidin-4-yl}-N-(2-piperidin-1-yl-ethyl)-benzamide]
  pIC50: 6.57

## O=C(NCCN1CCNCC1)c1cc(Cl)ccc1C1CCN(CCN2C(=O)COc3ccccc32)CC1 [Cpd 73, 5-chloro-2-{1-[2-(3-oxo-2,3-dihydro-benzo[1,4]oxazin-4-yl)-ethyl]-piperidin-4-yl}-N-(2-piperazin-1-yl-ethyl)-benzamide]
  pIC50: 5.72

## CC(C)NC(=O)NCCCCCNC(=O)c1cc(Cl)ccc1C1CCN(CCN2C(=O)COc3ccccc32)CC1 [Cpd 80, 5-chloro-N-[5-(3-isopropyl-ureido)-pentyl]-2-{1-[2-(3-oxo-2,3-dihydro-benzo[1,4]oxazin-4-yl)-ethyl]-piperidin-4-yl}-benzamide]
  pIC50: 6.68

## O=C(NCCCCCNC(=O)c1cc(Cl)ccc1C1CCN(CCN2C(=O)COc3ccccc32)CC1)Nc1ccccc1 [Cpd 81, 5-chloro-2-{1-[2-(3-oxo-2,3-dihydro-benzo[1,4]oxazin-4-yl)-ethyl]-piperidin-4-yl}-N-[5-(3-phenyl-ureido)-pentyl]-benzamide]
  pIC50: 6.28

## O=C1COc2ccccc2N1CCN1CCC(c2ccc(Cl)cc2)CC1 [Cpd 85, 4-{2-[4-(4-chloro-phenyl)-piperidin-1-yl]-ethyl}-4H-benzo[1,4]oxazin-3-one]
  pIC50: 4.74

## O=C1COc2ccccc2N1CCN1CCC(c2ccccc2)CC1 [Cpd 86, 4-[2-(4-phenyl-piperidin-1-yl)-ethyl]-4H-benzo[1,4]oxazin-3-one]
  pIC50: 4.62

## COc1ccc(C2CCN(CCN3C(=O)COc4ccccc43)CC2)cc1 [Cpd 87, 4-{2-[4-(4-methoxy-phenyl)-piperidin-1-yl]-ethyl}-4H-benzo[1,4]oxazin-3-one]
  pIC50: 4.33

## O=C1COc2ccccc2N1CCN1CCC(c2cccc(F)c2)CC1 [Cpd 88, 4-{2-[4-(3-fluoro-phenyl)-piperidin-1-yl]-ethyl}-4H-benzo[1,4]oxazin-3-one]
  pIC50: 4.55
